Test results as given in patent US12522594B2, “2-heteroaryl-3-oxo-2,3-dihydropyridazine-4-carboxamides for the treatment of cancer” (Deutsches Krebsforschungszentrum, priority 2017, dated 2026).
Values joined by “and” are separate entries in the source; they are usually repeats but may differ in a detail not shown here. Equal values may be shown once.

Tests used:
Assay type in all cases: cell-based
AHR [1] = target: T1, AHR (Homo sapiens, UniProt P35869); test: In vitro assay 1: antagonism in human cell line (transactivation assay, U87 cells prestimulated with kynurenic acid, DRE firefly luciferase reporter); set-up: host or cells: U87 glioblastoma cells, stably transfected with DRE firefly luciferase and renilla reporter constructs; conditions: 150 uM kynurenic acid, 20 hours, read-out: Assay 1: AHR-luc Hum Antagonism IC50
T1 sequence (P35869 11-848): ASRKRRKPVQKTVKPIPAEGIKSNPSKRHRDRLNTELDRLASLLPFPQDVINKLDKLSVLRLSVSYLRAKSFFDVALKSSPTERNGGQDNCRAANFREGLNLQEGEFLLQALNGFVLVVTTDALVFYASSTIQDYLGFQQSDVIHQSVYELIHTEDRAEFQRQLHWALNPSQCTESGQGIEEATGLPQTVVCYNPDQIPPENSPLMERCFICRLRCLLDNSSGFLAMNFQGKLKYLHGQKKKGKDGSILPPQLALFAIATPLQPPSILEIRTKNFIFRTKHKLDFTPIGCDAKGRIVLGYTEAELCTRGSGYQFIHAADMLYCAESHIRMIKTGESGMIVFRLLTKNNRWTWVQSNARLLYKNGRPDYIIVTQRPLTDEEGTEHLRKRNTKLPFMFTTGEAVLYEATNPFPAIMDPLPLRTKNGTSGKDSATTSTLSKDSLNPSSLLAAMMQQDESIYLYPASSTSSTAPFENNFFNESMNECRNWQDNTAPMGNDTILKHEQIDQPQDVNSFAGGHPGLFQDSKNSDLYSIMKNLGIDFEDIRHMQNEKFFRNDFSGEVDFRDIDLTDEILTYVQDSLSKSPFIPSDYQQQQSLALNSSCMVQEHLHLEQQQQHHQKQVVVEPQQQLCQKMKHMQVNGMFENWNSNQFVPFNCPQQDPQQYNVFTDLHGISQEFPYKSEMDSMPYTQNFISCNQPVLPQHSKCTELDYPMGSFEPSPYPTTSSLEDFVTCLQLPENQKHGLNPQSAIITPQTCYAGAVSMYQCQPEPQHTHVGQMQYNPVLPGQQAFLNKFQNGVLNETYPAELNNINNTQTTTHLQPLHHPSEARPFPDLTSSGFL
In short: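 U87 glioblastoma cells with endogenous AHR, stably carrying a DRE-driven firefly luciferase reporter and a constitutive renilla reporter. Cells prestimulated with the AHR agonist kynurenic acid before compound addition; data normalized to positive and negative controls.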

human monocytes = test: In vitro assay 4: rescue of TNFα production from human primary monocytes (LPS + KA); conditions: one value per donor; for Individual Donors Conc of highest rescue: concentration (of 1, 0.3, 0.1 uM tested) at which highest TNFα rescue was observed; for Individual Donors % rescue TNFα normalised to ref cmpd: human monocytes, 10 ng/mL LPS + 200 uM KA, 18 hours, highest percent rescue relative to highest rescue with GNF-351
Procedure: In Vitro Assay 4: Rescue of TNFα Production from Human Primary Monocytes
The ability of the substances to enhance immune cell activity was determined. The substances were tested for their capacity to reverse KA-induced inhibition of TNFα production by LPS-stimulated human monocytes. Human monocytes were purified by negative selection from donor PBMCs using Miltenyi beads and seeded at 2×10^5 cells/well in complete growth medium (RPMI 1640, 10% FCS). Monocytes were incubated with 10 ng/mL LPS (O127:B8, #L4516, Sigma) and 200 uM KA (#3375, Sigma) and substances were added at concentrations of 1 uM, 0.3 uM and 0.1 uM and cultured for 18 hours. LPS alone served as the positive control. TNFα production in the supernatant was measured by Meso Scale Discovery immunoassay and the ability of the substances to rescue TNFα production was calculated as a percentage of LPS stimulation and KA-induced inhibition and normalized to the donor-specific response with the reference AHR antagonist compound GNF-351 (Smith et al., J Pharmacol Exp Ther, 2011, 338(1):318-27).

AHR [2] = target: T1, AHR; test: In vitro assay 3: AHR-regulated CYP1A1 expression in human cell line (U937, qPCR, KA stimulation); conditions: U937 cells, 200 uM KA, 6 hours, CYP1A1 expression by qPCR; read-out: Assay 3: Hum CYP1A1 Antagonism IC50
In short: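 U937 human monocytic cells were stimulated with 200 uM KA for 6 h, with or without compound at eight concentrations from 1 nM to 3 uM, in duplicate. CYP1A1 mRNA was quantified by Taqman qPCR as fold expression normalised to HPRT. Unstimulated cells served as negative control.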

AHR [3] = target: T1, AHR; test: In vitro assay 2: agonism in human cell line (transactivation assay, U87 cells, DRE firefly luciferase reporter); set-up: host or cells: U87 glioblastoma cells, stably transfected with DRE firefly luciferase and renilla reporter constructs; conditions: no kynurenic acid, 20 hours, read-out: Assay 2: AHR-luc Hum Agonism IC50
In short: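 U87 glioblastoma cells with endogenous AHR, stably carrying DRE-driven firefly luciferase and constitutive renilla reporters. 300 uM kynurenic acid served as positive activation control; data normalized to positive and negative controls.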

IC50 (AHR [1]) | IC50 (AHR [2]) | IC50 (AHR [3]) | Compound | Individual Donors Conc of highest rescue (human monocytes) | Individual Donors % rescue TNFα normalised to ref cmpd (human monocytes)
28 nM | 18.2 nM | > 20000 nM | Cn1cc(-n2nc(-c3ccc(Cl)cc3)cc(C(=O)NCC(O)C(F)F)c2=O)cn1 (stereo not drawn) [Example 21, 6-(4-Chlorophenyl)-N-(3,3-difluoro-2-hydroxypropyl)-2-(1-methyl-1H-pyrazol-4-yl)-3-oxo-2,3-dihydropyridazine-4-carboxamide] | 0.3 µM and 1 µM | 87% and 77%
20 nM | 11.2 nM | > 20000 nM | Cn1cc(-n2nc(-c3ccc(Cl)cc3)cc(C(=O)NCC(O)C(F)F)c2=O)cn1 (single isomer, unassigned; (-)) [Example 22, (−)-6-(4-Chlorophenyl)-N-(3,3-difluoro-2-hydroxypropyl)-2-(1-methyl-1H-pyrazol-4-yl)-3-oxo-2,3-dihydropyridazine-4-carboxamide] | 1 µM | 66% and 71%
23.2 nM | 18.5 nM | > 20000 nM | Cc1ccc(-c2cc(C(=O)NCC(O)C(F)(F)F)c(=O)n(-c3cnn(C)c3)n2)cc1 (single isomer, unassigned; enantiomer 2) [Example 12, (+)-6-(4-Methylphenyl)-2-(1-methyl-1H-pyrazol-4-yl)-3-oxo-N-(3,3,3-trifluoro-2-hydroxypropyl)-2,3-dihydropyridazine-4-carboxamide, Enantiomer 2] | 0.1 μM (2×) and 1 μM and 0.3 μM | 74% and 122% and 213% and 109%
32.5 nM | 20 nM | > 20000 nM | Cc1ccc(-c2cc(C(=O)NCC(O)C(F)F)c(=O)n(-c3cnn(C)c3)n2)cc1 (stereo not drawn) [Example 13, N-(3,3-Difluoro-2-hydroxypropyl)-6-(4-methylphenyl)-2-(1-methyl-1H-pyrazol-4-yl)-3-oxo-2,3-dihydropyridazine-4-carboxamide] | 1 µM | 24% and 85%
1.52 nM | 1.66 nM | > 20000 nM | Cn1cc(-n2nc(-c3ccc(OC(F)(F)F)cc3)cc(C(=O)N[C@H](CO)C(F)(F)F)c2=O)cn1 [Example 47, 2-(1-Methyl-1H-pyrazol-4-yl)-3-oxo-N-[(2R)-1,1,1-trifluoro-3-hydroxypropan-2-yl]-6-[4-(trifluoromethoxy)phenyl]-2,3-dihydropyridazine-4-carboxamide] | 1 µM | 68% and 64%
20.5 nM | – | > 20000 nM | Cc1ccc(-c2cc(C(=O)NC(C)CO)c(=O)n(-c3cnn(C)c3)n2)cc1 (stereo not drawn) [Example 7, N-(1-Hydroxypropan-2-yl)-6-(4-methylphenyl)-2-(1-methyl-1H-pyrazol-4-yl)-3-oxo-2,3-dihydropyridazine-4-carboxamide] | 0.1 μM and 1 μM (2×) | 126% and 63% and 49%
12.2 nM | 11.1 nM | > 20000 nM | O=C(N[C@H]1CCC[C@H]1O)c1cc(-c2ccc(OC(F)(F)F)cc2)nn(-c2cccnc2)c1=O [Example 147, N-[(1S,2R)-2-Hydroxycyclopentyl]-3-oxo-2-(pyridin-3-yl)-6-[4-(trifluoromethoxy)phenyl]-2,3-dihydropyridazine-4-carboxamide] | 0.1 µM and 0.3 µM | 50% and 89%
68.2 nM | 91.1 nM | > 20000 nM | COCC(O)CNC(=O)c1cc(-c2ccc(Cl)cc2)nn(-c2cnn(C)c2)c1=O (single isomer, unassigned; (-)) [Example 25, (−)-6-(4-Chlorophenyl)-11-(2-hydroxy-3-methoxypropyl)-2-(1-methyl-1H-pyrazol-4-yl)-3-oxo-2,3-dihydropyridazine-4-carboxamide] | 1 µM | 46% and 53%
131 nM | – | > 20000 nM | CC(C)(O)C(NC(=O)c1cc(-c2ccc(Cl)cc2)nn(-c2cncnc2)c1=O)C(F)(F)F (single isomer, unassigned) [Example 186, 6-(4-Chlorophenyl)-3-oxo-2-(pyrimidin-5-yl)-N-(1,1,1-trifluoro-3-hydroxy-3-methylbutan-2-yl)-2,3-dihydropyridazine-4-carboxamide] | 0.1 µM and 0.3 µM | 65% and 108%
76.1 nM | – | > 20000 nM | COC[C@H](CO)NC(=O)c1cc(-c2ccc(Cl)cc2)nn(-c2cnn(C)c2)c1=O [Example 29, 6-(4-Chlorophenyl)-N-[(2S)-1-hydroxy-3-methoxypropan-2-yl]-2-(1-methyl-1H-pyrazol-4-yl)-3-oxo-2,3-dihydropyridazine-4-carboxamide] | 1 µM | 66% and 88%
3.31 nM | – | > 20000 nM | O=C(NC(CO)C(F)(F)F)c1cc(-c2ccc(C(F)(F)F)cc2)nn(-c2cccnc2)c1=O (racemic) [Example 110, 3-Oxo-2-(pyridin-3-yl)-N-[(2RS)-1,1,1-trifluoro-3-hydroxypropan-2-yl]-6-[4-(trifluoromethyl)phenyl]-2,3-dihydropyridazine-4-carboxamide] | 0.1 µM and 0.3 µM | 85% and 42%
3810 nM | – | > 20000 nM | O=C(N[C@H]1COC[C@H]1O)c1cc(-c2ccc(C(F)F)nc2)nn(-c2cccnc2)c1=O (single isomer, unassigned) [Example 184, 6-[6-(Difluoromethyl)pyridin-3-yl]-N-[(cis)-4-hydroxytetrahydrofuran-3-yl]-3-oxo-2-(pyridin-3-yl)-2,3-dihydropyridazine-4-carboxamide] | 0.1 µM and 1 µM | 63% and 62%
78 nM | – | > 20000 nM | O=C(NCC(O)C(F)F)c1cc(-c2ccc(Cl)cc2)nn(-c2cccnc2)c1=O (single isomer, unassigned; (+)) [Example 88, (+)-6-(4-Chlorophenyl)-N-(3,3-difluoro-2-hydroxypropyl)-3-oxo-2-(pyridin-3-yl)-2,3-dihydropyridazine-4-carboxamide] | 1 µM | 69% and 35%
177 nM | – | > 20000 nM | Cn1cc(-n2nc(-c3ccc(Cl)cc3)cc(C(=O)NC[C@H](O)CO)c2=O)cn1 [Example 27, 6-(4-Chlorophenyl)-N-[(2S)-2,3-dihydroxypropyl]-2-(1-methyl-1H-pyrazol-4-yl)-3-oxo-2,3-dihydropyridazine-4-carboxamide] | 1 µM and 0.3 µM | 87% and 105%
